According to publication PMC8151276, “An Integrated Approach toward NanoBRET Tracers for Analysis of GPCR Ligand Engagement” (Molecules, 2021):

Key:
Type in all cases: binding
HRH2 = biological target: T1, HRH2 (Homo sapiens, UniProt P25021); assay: NanoBRET screen HiBiT-HRH2 in HEK293; conditions: HRH2
T1 construct: purchased Promega (in-house HiBiT-GPCR construct library, NanoBRET)
Experimental: (§1) Each tracer candidate was screened across the entire library of HiBiT-GPCR constructs using NanoBRET as the detection modality. As depicted in Figure 4A, the specificity of interactions was evaluated through decrease in BRET due to competitive displacement of a bound tracer by excess parental compound. Each tracer was analyzed for binding to each HiBiT-GPCR fusion in the absence and in the presence of competing parental compound. Briefly, HEK293 cells were transfected with HiBiT-GPCR constructs diluted into promoterless DNA to reduce expression and maximize translocation to the cell surface. Each tracer candidate was then screened at concentrations of 1 μM and 0.1 μM across cells expressing these fusions. Cells were treated for 1.5 h with tracer either alone or in the presence of 20 μM competing parental compound (i.e., control). BRET was measured upon addition of purified LgBiT and subsequent complementation with HiBiT genetically fused to a GPCR. The specificity of interactions was assessed through a decrease in BRET signal due to competitive displacement of the bound tracer. To further gauge the robustness of these interactions, the fold response over the control (i.e., BRETtracer/BRETcontrol) was calculated. We chose a 1.5-fold response, which translates to ≥7-fold signal over noise as the minimal threshold required to score an interaction as positive. […]. Below we highlight the screening results obtained for our exemplary fluorescent tracers based on Clozapine, Amitriptyline and AZD1283.
(§2) HiBiT-GPCR DNA constructs were diluted in 10 mM Tris pH 8 to a final concentration of 0.01 μg/μL, arrayed in 96-well plates and stored at −20 °C. For transfection, HEK293 cells were suspended in Opti-MEM (without phenol red) supplemented with 2% fetal bovine serum (Seradigm) and 100 units/mL penicillin–streptomycin (Gibco) at a final concentration of 220,000 cells/mL and dispensed into white 96-well plates at 90 μL/well. Subsequent transfections and screens were carried using an Agilent Bravo Automated Liquid Handling Platform. First, the 96-well HiBiT DNA arrays were diluted 25-fold in Opti-MEM (without serum or phenol red) to a final concentration of 0.0004 μg/μL and 20 μL of the diluted DNAs were transferred into new 96-well plates. Next, promoterless carrier DNA (1 μg/μL) was diluted 25-fold (0.04 μg/μL) and then dispensed into the diluted arrays at 20 μL/well. Following brief mixing, Viafect transfection reagent (Promega) diluted 16-fold into Opti-MEM was dispensed into the plates at 40 μL/well. After mixing by pipetting, plates were incubated for 10 min on the pipetting station deck. The DNA-transfection reagent complexes were then added to plates containing cells. To facilitate the screen, 10 μL of DNA-transfection reagent complexes were added in duplicates to the top 4 and bottom 4 rows, resulting in two identical 48-well arrays per plate. Plates with transfected cells were incubated for 18–20 h at 37 °C/5% CO2. A screen of each tracer across the entire library using two different concentrations requires duplicate plates of transfected cells. Depending on the number of tracers being screened, transfections can be scaled up using the same ratios. The next day, for each tracer, four 20× screening solutions in tracer dilution buffer (Promega) were prepared: two duplicates at final concentration of 20 μM and two duplicates at a final concentration of 2 μM. A competing unmodified compound was added to one of each duplicate at a final concentration of 400 μM. The four resulting solutions were diluted 4-fold in Opti-MEM without serum or phenol red to generate 5× solutions (5 µM and 0.5 µM tracer +/− 100 μM competing compound). To screen the library, a BioTek MultiFlo FX liquid dispenser was used to dispense 22.5 µL of tracer solution to the top 4 rows and 22.5 µL tracer + competing compound solution to the 4 bottom rows. Plates were briefly mixed on an orbital shaker and incubated for 1.5 h at room temperature. […]

MC3R = biological target: T2, MC3R (Homo sapiens, UniProt P41968); assay: NanoBRET screen HiBiT-MC3R in HEK293; conditions: MC3R
T2 construct: purchased Promega (in-house HiBiT-GPCR construct library, NanoBRET)
Experimental: as §1, §2

RXFP4 = biological target: T3, RXFP4 (Homo sapiens, UniProt Q8TDU9); assay: NanoBRET screen HiBiT-RXFP4 in HEK293; conditions: RXFP4
T3 construct: purchased Promega (in-house HiBiT-GPCR construct library, NanoBRET)
Experimental: as §1, §2

ADRA2C = biological target: T4, ADRA2C (Homo sapiens, UniProt P18825); assay: NanoBRET screen HiBiT-ADRA2C in HEK293; conditions: ADRA2C
T4 construct: purchased Promega (in-house HiBiT-GPCR construct library, NanoBRET)
T4 sequence (P18825 1-462): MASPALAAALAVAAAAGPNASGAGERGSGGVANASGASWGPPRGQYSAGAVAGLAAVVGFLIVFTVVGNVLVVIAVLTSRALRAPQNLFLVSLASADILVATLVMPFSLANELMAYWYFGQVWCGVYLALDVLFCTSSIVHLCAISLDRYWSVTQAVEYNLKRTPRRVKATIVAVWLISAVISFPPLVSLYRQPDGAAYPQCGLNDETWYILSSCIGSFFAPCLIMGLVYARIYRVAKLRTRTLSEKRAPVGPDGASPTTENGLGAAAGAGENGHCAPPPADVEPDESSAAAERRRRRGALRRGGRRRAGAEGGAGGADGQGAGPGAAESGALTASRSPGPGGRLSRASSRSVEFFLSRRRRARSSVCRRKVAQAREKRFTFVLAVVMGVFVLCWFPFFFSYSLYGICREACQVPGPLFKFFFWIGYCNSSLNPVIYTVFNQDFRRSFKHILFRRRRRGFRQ
Experimental: as §1, §2

MC4R = biological target: T5, MC4R (Homo sapiens, UniProt P32245); assay: NanoBRET screen HiBiT-MC4R in HEK293; conditions: MC4R
T5 construct: purchased Promega (in-house HiBiT-GPCR construct library, NanoBRET)
Experimental: as §1, §2

RXFP2 = biological target: T6, RXFP2 (Homo sapiens, UniProt Q8WXD0); assay: NanoBRET screen HiBiT-RXFP2 in HEK293; conditions: RXFP2
T6 construct: purchased Promega (in-house HiBiT-GPCR construct library, NanoBRET)
Experimental: as §1, §2

P2RY11 = biological target: T7, P2RY11 (Homo sapiens, UniProt Q96G91); assay: NanoBRET screen HiBiT-P2RY11 in HEK293; conditions: P2RY11
T7 construct: purchased Promega (in-house HiBiT-GPCR construct library, NanoBRET)
T7 sequence (Q96G91 1-374): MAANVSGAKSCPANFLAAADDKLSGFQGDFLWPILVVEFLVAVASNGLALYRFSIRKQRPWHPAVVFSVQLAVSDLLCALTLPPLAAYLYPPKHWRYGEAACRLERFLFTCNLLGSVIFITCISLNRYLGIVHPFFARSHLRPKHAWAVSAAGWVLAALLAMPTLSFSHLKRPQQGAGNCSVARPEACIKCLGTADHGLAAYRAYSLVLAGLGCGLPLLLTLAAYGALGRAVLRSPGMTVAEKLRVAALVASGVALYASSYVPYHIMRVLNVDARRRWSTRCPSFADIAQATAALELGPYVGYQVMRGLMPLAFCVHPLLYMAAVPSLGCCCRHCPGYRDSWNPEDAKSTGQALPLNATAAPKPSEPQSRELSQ
Experimental: as §1, §2

T5 sequence (P32245 whole entry): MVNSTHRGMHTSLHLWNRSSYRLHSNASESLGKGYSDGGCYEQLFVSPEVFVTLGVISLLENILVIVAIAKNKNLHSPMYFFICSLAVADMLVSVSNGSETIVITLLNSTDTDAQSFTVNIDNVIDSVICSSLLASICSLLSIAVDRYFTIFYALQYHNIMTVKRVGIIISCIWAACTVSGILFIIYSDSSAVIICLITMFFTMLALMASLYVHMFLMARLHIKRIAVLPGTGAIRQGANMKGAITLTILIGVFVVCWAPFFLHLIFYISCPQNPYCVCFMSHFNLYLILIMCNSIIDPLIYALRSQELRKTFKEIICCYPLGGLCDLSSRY
T2 sequence (P41968 whole entry): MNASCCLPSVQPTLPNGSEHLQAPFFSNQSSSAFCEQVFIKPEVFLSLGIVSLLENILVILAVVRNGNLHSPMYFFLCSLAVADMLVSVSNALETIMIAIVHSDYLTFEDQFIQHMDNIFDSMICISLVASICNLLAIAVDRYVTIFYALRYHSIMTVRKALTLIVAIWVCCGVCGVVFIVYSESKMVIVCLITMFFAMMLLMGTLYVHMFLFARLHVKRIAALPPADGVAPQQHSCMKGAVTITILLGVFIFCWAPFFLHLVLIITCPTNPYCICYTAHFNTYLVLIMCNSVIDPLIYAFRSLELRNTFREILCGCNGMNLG
T6 sequence (Q8WXD0 whole entry): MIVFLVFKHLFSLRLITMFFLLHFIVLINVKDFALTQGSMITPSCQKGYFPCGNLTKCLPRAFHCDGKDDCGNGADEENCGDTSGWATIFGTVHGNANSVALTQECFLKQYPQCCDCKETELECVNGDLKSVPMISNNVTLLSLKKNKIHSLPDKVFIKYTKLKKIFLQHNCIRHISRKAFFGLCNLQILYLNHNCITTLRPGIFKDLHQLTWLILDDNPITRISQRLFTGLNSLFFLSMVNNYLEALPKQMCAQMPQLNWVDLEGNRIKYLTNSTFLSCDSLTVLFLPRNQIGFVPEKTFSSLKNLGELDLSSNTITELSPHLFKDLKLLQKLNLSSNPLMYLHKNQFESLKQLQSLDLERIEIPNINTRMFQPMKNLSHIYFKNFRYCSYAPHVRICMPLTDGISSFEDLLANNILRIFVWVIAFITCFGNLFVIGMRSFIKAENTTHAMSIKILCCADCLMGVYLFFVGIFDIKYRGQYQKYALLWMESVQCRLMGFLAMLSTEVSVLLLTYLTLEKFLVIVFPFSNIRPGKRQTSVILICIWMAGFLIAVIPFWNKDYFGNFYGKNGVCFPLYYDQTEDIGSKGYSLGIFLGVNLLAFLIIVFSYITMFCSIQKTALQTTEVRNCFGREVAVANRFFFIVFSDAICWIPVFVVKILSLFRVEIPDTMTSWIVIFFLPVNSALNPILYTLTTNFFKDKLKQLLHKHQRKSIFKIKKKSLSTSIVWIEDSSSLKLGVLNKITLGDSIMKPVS
T1 sequence (P25021 whole entry): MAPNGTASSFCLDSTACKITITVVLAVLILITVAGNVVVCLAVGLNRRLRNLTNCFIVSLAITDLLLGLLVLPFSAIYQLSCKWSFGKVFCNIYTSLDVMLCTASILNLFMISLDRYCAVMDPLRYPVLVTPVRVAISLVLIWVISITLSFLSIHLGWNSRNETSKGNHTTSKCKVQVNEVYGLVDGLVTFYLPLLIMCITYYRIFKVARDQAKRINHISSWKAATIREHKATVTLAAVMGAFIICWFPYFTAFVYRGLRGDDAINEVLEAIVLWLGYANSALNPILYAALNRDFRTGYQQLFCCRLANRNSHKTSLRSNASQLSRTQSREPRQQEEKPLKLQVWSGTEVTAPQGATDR
T3 sequence (Q8TDU9 whole entry): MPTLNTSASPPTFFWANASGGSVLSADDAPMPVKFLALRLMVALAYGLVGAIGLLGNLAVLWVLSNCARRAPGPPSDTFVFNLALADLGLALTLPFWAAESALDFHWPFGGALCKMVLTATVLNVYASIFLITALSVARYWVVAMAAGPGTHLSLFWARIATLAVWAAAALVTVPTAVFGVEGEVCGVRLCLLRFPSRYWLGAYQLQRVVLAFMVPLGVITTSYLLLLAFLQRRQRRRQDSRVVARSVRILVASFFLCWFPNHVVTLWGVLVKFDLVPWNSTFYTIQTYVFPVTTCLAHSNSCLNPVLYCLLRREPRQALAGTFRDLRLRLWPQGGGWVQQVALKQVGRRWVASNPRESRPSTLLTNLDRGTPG

Compound	NanoBRET Fold Response (HRH2; 0.1μM tracer)	NanoBRET Fold Response (HRH2; 1μM tracer)	NanoBRET Fold Response (MC3R; 0.1μM tracer)	NanoBRET Fold Response (MC3R; 1μM tracer)	NanoBRET Fold Response (RXFP4; 0.1μM tracer)	NanoBRET Fold Response (RXFP4; 1μM tracer)	NanoBRET Fold Response (ADRA2C; 0.1μM tracer)	NanoBRET Fold Response (ADRA2C; 1μM tracer)	NanoBRET Fold Response (HRH2; tracer 0.1μM)	NanoBRET Fold Response (MC3R; tracer 0.1μM)	NanoBRET Fold Response (MC3R; tracer 1μM)	NanoBRET Fold Response (RXFP4; tracer 1μM)	NanoBRET Fold Response (ADRA2C; tracer 0.1μM)	NanoBRET Fold Response (ADRA2C; tracer 1μM)	NanoBRET Fold Response (MC4R; tracer 0.1μM)	NanoBRET Fold Response (MC4R; tracer 1μM)	NanoBRET Fold Response (RXFP2; tracer 0.1μM)	NanoBRET Fold Response (RXFP2; tracer 1μM)	NanoBRET Fold Response (P2RY11; tracer 0.1μM)	NanoBRET Fold Response (P2RY11; tracer 1μM)	further results
O=C(CCOCCOCCOCCOCCNC(=O)CCc1ccc2n1[B-](F)(F)[N+]1=C(c3ccc[nH]3)C=CC1=C2)NCCCN1CCN(C2=Nc3cc(Cl)ccc3Nc3ccccc32)CC1 [Clozapine-a-2-NB590]	0.95	0.89	1.02	0.95	1.10	1.10	1.80	1.62													NanoBRET Fold Response (MC4R; 0.1μM tracer): 1.02; NanoBRET Fold Response (MC4R; 1μM tracer): 1.01; NanoBRET Fold Response (RXFP2; 0.1μM tracer): 1.23; NanoBRET Fold Response (RXFP2; 1μM tracer): 1.14; NanoBRET Fold Response (P2RY11; 0.1μM tracer): 1.04; NanoBRET Fold Response (P2RY11; 1μM tracer): 0.93
CN1CCN(C2=Nc3cc(Cl)ccc3Nc3ccc(CNC(=O)CCOCCOCCOCCOCCNC(=O)CCc4ccc5n4[B-](F)(F)[N+]4=C(c6ccc[nH]6)C=CC4=C5)cc32)CC1 [Clozapine-b-2-NB590]	1.01	0.97	1.05	0.94	0.97	1.01	1.25	1.67													NanoBRET Fold Response (MC4R; 0.1μM tracer): 1.03; NanoBRET Fold Response (MC4R; 1μM tracer): 1.05; NanoBRET Fold Response (RXFP2; 0.1μM tracer): 1.04; NanoBRET Fold Response (P2RY11; 0.1μM tracer): 1.04; NanoBRET Fold Response (P2RY11; 1μM tracer): 0.98
CN1CCN(C2=Nc3cc(Cl)ccc3N(CC(=O)NCCOCCOCCOCCOCCNC(=O)CCc3ccc4n3[B-](F)(F)[N+]3=C(c5ccc[nH]5)C=CC3=C4)c3ccccc32)CC1 [Clozapine-c-2-NB590]	0.92	0.95	1.02	1.03	0.96	1.04	1.05	1.49													NanoBRET Fold Response (MC4R; 0.1μM tracer): 1.02; NanoBRET Fold Response (MC4R; 1μM tracer): 1.06; NanoBRET Fold Response (RXFP2; 0.1μM tracer): 0.62; NanoBRET Fold Response (RXFP2; 1μM tracer): 1.17; NanoBRET Fold Response (P2RY11; 0.1μM tracer): 0.93; NanoBRET Fold Response (P2RY11; 1μM tracer): 0.98
O=C(CCOCCOCCOCCOCCNC(=O)CCc1ccc2n1[B-](F)(F)[N+]1=C(c3ccc[nH]3)C=CC1=C2)NCCCN1CCN(C2=Nc3ccccc3Oc3ccc(Cl)cc32)CC1 [Loxapine-a-2-NB590]									0.79	1.00	1.00	1.21	1.13	1.54	1.04	1.04	0.94	0.64	1.02	0.94	NanoBRET Fold Response (HRH2; tracer 1μM): 1.06; NanoBRET Fold Response (RXFP4; tracer 0.1μM): 1.01
COc1ccccc1N1CCN(CCCCN2C(=O)c3ccc(CNC(=O)CCOCCOCCOCCOCCNC(=O)CCc4ccc5n4[B-](F)(F)[N+]4=C(c6ccc[nH]6)C=CC4=C5)cc3C2=O)CC1 [NAN-190-2-NB590]									0.94	1.03	1.00	0.97	1.22	0.89	0.97	1.01	0.78	1.17	1.09	0.99	
COc1ccccc1N1CCN(CCCCN2C(=O)c3ccc(CNC(=O)CCOCCNC(=O)c4ccc(CNC(=O)CCc5ccc6n5[B-](F)(F)[N+]5=C(c7ccc[nH]7)C=CC5=C6)cc4)cc3C2=O)CC1 [NAN-190-3-NB590]									1.07	1.10	0.95	0.90	1.56	1.33	1.05	0.83	0.63	0.89	1.05	0.96	NanoBRET Fold Response (HRH2; tracer 1μM): 1.08; NanoBRET Fold Response (RXFP4; tracer 0.1μM): 0.93
O=C(CCc1ccc2n1[B-](F)(F)[N+]1=C(c3ccc[nH]3)C=CC1=C2)NCc1ccc(C(=O)NCCOCCC(=O)N[C@@H]2CC[C@@]3(O)[C@H]4Cc5ccc(O)c6c5[C@@]3(CCN4CC3CC3)[C@H]2O6)cc1 [Naltrexone-3-NB590]									0.85	0.90	1.11	0.98	0.99	1.05	1.06	1.06	1.31	0.72	1.26	0.71	NanoBRET Fold Response (HRH2; tracer 1μM): 1.34; NanoBRET Fold Response (RXFP4; tracer 0.1μM): 0.98
